Laboratory results: US20160008366A1, “BTK INHIBITORS FOR THE TREATMENT OF CNS MALIGNANCIES” (Pharmacyclics LLC, priority 2014, published 2016)
Marks after values point to notes of the source that are not given here.

Key:
[1] = CSF and plasma concentration ratios for ibrutinib and PCI-45227, patient 01-001BF; format: in vivo, human; conditions: ibrutinib 560 mg daily; for Kp: human, CSF/plasma, 560 mg daily
[2] = Adsorption test in human CSF to Nunc CryoTube vials; format: physicochemical; conditions: incubated for 1 h on ice, Low and High QC
Source text: These QC samples were kept in Nunc CryoTube vials for one hour. After an hour, each sample was vortex mixed and assayed against freshly prepared calibration standards. The obtained concentrations of the adsorption test QC samples were compared to the nominal values. The samples were considered to have no adsorption to the Nunc CryoTube vials if the mean value of the obtained concentrations was within 20% of the nominal concentration.

[3] = Quantification of PCI-32765 (ibrutinib) and its metabolite PCI-45227 in human cerebrospinal fluid samples of patient 01-001BF (LC-MS/MS); format: in vivo; conditions: for observed in CSF samples: patient 01-001BF after 560 mg of ibrutinib daily; for Calculated Concentration in CSF: patient 01-001BF, ibrutinib 560 mg daily
Protocol: Samples were obtained from patient (01-001BF), a person with Waldenstrom's macroglobulinemia with amyloid and Bing-Neel syndrome.
Standards and QC sample preparation and data analysis were carried out using the methods described in Example 1. In brief, all samples and standards were prepared on ice. Internal standard (IS) was prepared by addition of d5-PCI-32765 and d5-PCI-45227 in 0.2% formic acid in 1:9 (v/v) water: ACN (acetonitrile).
A100 μL of either a sample or a standard was transferred into each well of a 96-well plate. To each well was added 20 μL of the internal standard solution. […] Next, the 96-well plate was capped and vortexed thoroughly and then centrifuged at 4000 rpm for at least 10 minutes at 4° C.
High performance liquid chromatography (HPLC) (Shimadzu Nexera X2 HPLC system) was coupled with an electrospray ionization triple quadrupole mass spectrometer (AB SCIEX API-6500), and an autosampler (CTC PAL Eksigent). Chromatographic separation was achieved using an XBridge™ Ethylene-Bridged Hybrid (BEH) C18 column, 3.5 μm (2.1×50 mm) (Waters), and a C 18 guard column (2×4 mm) (Phenomenex Security Guard). Mobile phase A was 0.1% formic acid in water and mobile phase B was 100% acetonitrile. In all conditions, the column temperature was at ambient, the autosampler temperature was at 4° C., and the injection volume was 10 μL. The diversion time from HPLC to MS was from 0.5 minutes to 2.5 minutes.
The mass spectrometer (MS) equipped with an ESI source, was operated at a source temperature of 700° C.

[4] = cited from earlier work
[5] = QC samples freeze (−70° C.)/thaw (on ice) stability in human CSF; format: in vitro ADME; conditions: nominal 0.500 ng/mL, 3 freeze/thaw cycles, n=6
Protocol: QC samples stored at −70° C., which were subjected to 3 freeze/thaw (ice) cycles, were measured against freshly prepared calibration standards.

[6] = Short-term storage stability in human CSF at −70±5° C.; format: in vitro ADME; conditions: −70±5° C. for at least 7 days, n=6
[7] = QC samples bench-top (ice) stability in human CSF; format: in vitro ADME; conditions: nominal 0.500 ng/mL, on ice for 2 hours, n=6
[8] = Day 1, pre-dose (0 h), BQL = below quantification limit (0.3 ng/mL)

Row | Kp ([1]; 1 Month, 3 h) | Kp ([1]; Day 1, 2 h) | adsorption to Nunc Cryo Tube vials [2] | observed in CSF samples [3] | Calculated Concentration in CSF ([3]; 1 Month, 3 h) | Calculated Concentration in CSF ([3]; Day 1, 2 h) | Calculated Concentration in CSF [3, 8] | Calculated Concentration in CSF ([3]; Day 1, pre-dose (0 h), BQL = below quantification limit (0.3 ng/mL), listed as Ibrutinib) | F/T3 (−70° C.) Low QC, % Accuracy [5] | F/T3 (−70° C.) Low QC, Mean [5] | Intra-run QC Low, % Accuracy ([6]; nominal 0.500 ng/mL) | Intra-run QC Low, Mean ([6]; nominal 0.500 ng/mL) | Intra-run QC Mid, % Accuracy ([6]; nominal 5.00 ng/mL) | Intra-run QC Mid, Mean ([6]; nominal 5.00 ng/mL) | % CSF/Plasma ([1]; 1 Month, 3 h) | % CSF/Plasma ([1]; Day 1, 2 h) | Bench-top QC Low Concentration, Mean [7] | Bench-top QC Low, % Accuracy [7] | Compound | reported percentage of unbound of the compounds in plasma [4]
1 | 0.035 | 0.03 | no adsorption | observed | 7.19 ng/mL | 15.0 ng/mL | BQL | BQL^a | – | – | – | – | – | – | – | – | – | – | C=CC(=O)N1CCC[C@@H](n2nc(-c3ccc(Oc4ccccc4)cc3)c3c(N)ncnc32)C1 [PCI-32765, (R)-1-(3-(4-amino-3-(4-phenoxyphenyl)-1H-pyrazolo[3,4-d]pyrimidin-1-yl)piperidin-1-yl)prop-2-en-1-one] | –
2 | – | – | no adsorption | observed | 15.4 ng/mL | 14.7 ng/mL | BQL and BQL^a | – | 97.2% | 0.486 ng/mL | 99.4% | 0.497 ng/mL | 87.8% | 4.39 ng/mL | 8.5% | 6.2% | 0.458 ng/mL | 91.5% | Nc1ncnc2c1c(-c1ccc(Oc3ccccc3)cc1)nn2[C@@H]1CCCN(C(=O)C(O)CO)C1 (stereo partly drawn) [PCI-45227] | 9%
